Read-outs that look alike come from different tables or passages of the source.
What was measured:
[1] = test system: Panc-1 (pancreatic cancer cell line); assay: Cell proliferation assay (GI50) in Panc-1 cells; format: cell-based; conditions: Homo sapiens, PANC-1, 48 h
Procedure: [Worded in the source for another cell line; this cell line is reported under the same test.] (§1) T-47D cells were grown and harvested as in Example 221. An aliquot of 90 μl of cells (2.2×10^4 cells/ml) was added to a well of a 96-well microtiter plate containing 10 μl of a 10% DMSO in RPMI-1640 media solution containing 1 nM to 100 μM of 4-(3-methoxyanilino)-2-(2-pyridinyl)-6-(trifluoromethyl)pyrimidine (0.1 nM to 10 μM final). An aliquot of 90 μl of cells was added to a well of a 96-well microtiter plate containing 10 μl of a 10% DMSO in RPMI-1640 media solution without compound as the control sample for maximal cell proliferation (AMax). The samples were mixed by agitation and then incubated at 37° C. for 48 h in a 5% CO2-95% humidity incubator. After incubation, the samples were removed from the incubator and 20 μl of CellTiter 96 AQueous One Solution Cell Proliferation^TM reagent (Promega) was added. The samples were mixed by agitation and incubated at 37° C. for 2-4 h in a 5% CO2-95% humidity incubator. Using an absorbance plate reader (Model 1420 Wallac Instruments), an initial reading (T=0) was made approximately 1-2 min after addition of the solution, employing absorbance at 490 nm. This determines the possible background absorbance of the test compounds. No absorbance for 4-(3-methoxyanilino)-2-(2-pyridinyl)-6-(trifluoromethyl)pyrimidine was found at 490 nm. After the 2-4 h incubation, the samples were read for absorbance as above (ATest). […]

[2] = test system: P388 (mouse leukemia cell line); assay: Cell proliferation assay (GI50) in P388 cells; format: cell-based; conditions: P388, 48 h
Procedure: [Worded in the source for another organism; used here, by the source, with some conditions changed.] as §1

[3] = test system: MES-SA (sarcoma cell line); assay: Cell proliferation assay (GI50) in MES-SA cells; format: cell-based; conditions: Homo sapiens, 48 h
Procedure: [Worded in the source for another cell line; this cell line is reported under the same test.] as §1

[4] = test system: T-47D cells; assay: Cell cycle arrest and apoptosis by propidium iodide flow cytometry in T-47D cells; format: cell-based, Human; conditions: 48 h
Procedure: T-47D, a breast cancer cell line, was maintained and harvested as described in Example 221. 5×10^5 Cells were treated with 0.2 μM of 4-(3-methoxyanilino)-2-(2-pyridinyl)-6-(trifluoromethyl)pyrimidine for 48 h at 37° C. As a control, cells were also incubated with equivalent amount of solvent (DMSO). Cells were harvested at 1,200 rpm and then transferred to 12×75 mm polystyrene tubes. Cells were then resuspended in 500 μl of 1% Na Citrate, 0.1% Triton X-100, and 50 μg/ml of propidium iodide and incubated at room temperature for 30 min followed by flow cytometer analysis. All flow cytometry analyses were performed on FACScalibur (Becton Dickinson) using Cell Quest analysis software. The x-axis plotted the amount of fluorescence and the y-axis is plotted the number of cells with the indicated fluorescence. The T-47D control cell population profile is seen in FIG. 1A and the increase in G2/M DNA content cells that is seen when treated with 4-(3-methoxyanilino)-2-(2-pyridinyl)-6-(trifluoromethyl)pyrimidine at 0.2 μM is seen in FIG. 1B. An increase in the sub-diploid DNA content of cells (FIG. 1) is also seen to increase from 2% to 25% with compound treatment. The sub-diploid amount of DNA is indicative of apoptotic cells which have undergone DNA degradation or fragmentation.

[5] = test system: PC-3 (prostate cancer cell line); assay: Cell proliferation assay (GI50) in PC-3 cells; format: cell-based; conditions: Homo sapiens, PC-3, 48 h
Procedure: [Worded in the source for another cell line; this cell line is reported under the same test.] as §1

[6] = test system: T-47D cells; assay: Cell proliferation assay (GI50) in T-47D cells; format: cell-based; conditions: Homo sapiens, T47D, 48 h
Procedure: as §1

GI50 [1]: > 10000 nM | GI50 [2]: > 10000 nM | GI50 [3]: > 10000 nM | GI50 [5]: > 10000 nM | GI50 ([6]; T-47D, Table II, read-out: GI50): 30 nM | GI50 ([6]; Table III, read-out: GI50(nM) T47D): 30 nM
Structure (SMILES): COc1cccc(Nc2cc(C(F)(F)F)nc(-c3ccccn3)n2)c1 [Compound A, 4-(3-methoxyanilino)-2-(2-pyridinyl)-6-(trifluoromethyl)pyrimidine]
sub-diploid DNA content of cells ([4]; 0.2 μM, control 2%): 25% | G1 population ([4]; 200 nM, versus control cells): reduction | G2/M population (G2/M DNA content cells) ([4]; 200 nM, versus control cells): increase

Source: patent US6716851B2, “Substituted 2-aryl-4-arylaminopyrimidines and analogs as activators or caspases and inducers of apoptosis and the use thereof” (Cytovia, Inc., priority 2000, dated 2004)
